Data published in PMC6050662, “Lycorine inhibits glioblastoma multiforme growth through EGFR suppression” (Journal of Experimental & Clinical Cancer Research : CR, 2018).

Molecular target: T1, EGFR (Homo sapiens, UniProt P00533)
T1 construct: GST-tagged EGFR (696–1022), intracellular kinase domain
Experiment: SPR (Biacore T200, GST-EGFR captured by anti-GST on CM5 chip); also kinase assay (Kinase-Glo) IC50 about […]
Assay type: binding

T1 sequence (P00533 696-1022): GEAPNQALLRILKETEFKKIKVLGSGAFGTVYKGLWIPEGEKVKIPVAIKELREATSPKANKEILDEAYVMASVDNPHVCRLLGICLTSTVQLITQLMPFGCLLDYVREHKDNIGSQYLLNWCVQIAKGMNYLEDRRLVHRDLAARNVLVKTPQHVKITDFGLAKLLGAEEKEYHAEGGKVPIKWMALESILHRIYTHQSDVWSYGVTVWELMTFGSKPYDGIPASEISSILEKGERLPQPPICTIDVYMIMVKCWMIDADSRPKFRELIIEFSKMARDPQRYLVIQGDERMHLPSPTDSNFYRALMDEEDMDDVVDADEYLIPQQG

O[C@H]1[C@H]2c3cc4c(cc3CN3CCC(=C[C@@H]1O)[C@H]23)OCO4 [Lycorine]
Kd: ~3.6 µM
